Values of other authors in patent EP2687509A2, “Dicarboxyimides derivatives for use in the treatment of cancer” (Warszawski Uniwersytet Medyczny, priority 2012, dated 2014).

What was measured:
[1] = higher than for the lead compound amonafide; cited from earlier work
[2] = test system: murine leukemia, breast cancer and orthotopic models of non-small cell lung cancer and pancreatic cancer; conditions: cited from earlier work
[3] = mouse, in vivo; cited from earlier work

CN(C)CCN1C(=O)c2cccc3cc(NC(=O)NC(=O)C(Cl)(Cl)Cl)cc(c23)C1=O [UNBS3157, 2,2,2-trichloro-N-({2-[2-(dimethylamino)ethyl]-1,3-dioxo-2,3-dihydro-1H-benzo[de]izoquinolino-5-ylo}carbamoylo)acetamide]
maximum tolerated dose relative to amonafide [1]: about 4 x
activity in in vivo models compared to amonafide [2]: enhanced activity
haemotoxicity [3]: no haemotoxicity
